Assay results as given in the NIST ThermoML archive (doi:10.1021/je900542y).
Where “and” joins values, the source holds several entries; their conditions need not be identical. Equal values may be shown once. ± gives the expanded uncertainty stated by the source. One block for each compound: values may come before it.

Assays:
[1] = 298.15 K; 101 kPa; Liquid
[2] = mn = molality of the nth substance listed, in mol/kg; settings: 298.15 K, 101 kPa, Liquid

SMILES: CC(C)=O [acetone]
mass density [1]: 783.81 ± 0.5 kg/m3

SMILES: CC(C)=O [acetone] + CC[N+](CC)(CC)CC.[I-]
mass density ([2]; m2 = 0): 783.81 ± 0.5 kg/m3

SMILES: CC#N [acetonitrile]
mass density [1]: 776.01 ± 0.6 kg/m3 and 776.02 ± 0.59 kg/m3

mass density ([2]; m2 = 0): 776.01 ± 0.6 kg/m3
SMILES: CC#N [acetonitrile] + CC[N+](CC)(CC)CC.[I-]

mass density [1]: 786.38 ± 0.49 kg/m3
SMILES: CO [methanol]

mass density ([2]; m2 = 0): 786.38 ± 0.49 kg/m3
SMILES: CO [methanol] + CC[N+](CC)(CC)CC.[I-]

SMILES: O=[N+]([O-])c1ccccc1 [nitrobenzene]
mass density [1]: 1198.91 ± 0.72 kg/m3

SMILES: O=[N+]([O-])c1ccccc1 [nitrobenzene] + CC[N+](CC)(CC)CC.[I-]
mass density ([2]; m2 = 0): 1198.91 ± 0.72 kg/m3

SMILES: CC[N+](CC)(CC)CC.[I-] [tetraethylammonium iodide] + CC#N
mass density ([2]; m1 = 0.0001): 776.01 ± 0.6 kg/m3 | mass density ([2]; m1 = 0.0002): 776.02 ± 0.59 kg/m3 | mass density ([2]; m1 = 0.00354): 776.16 ± 0.59 kg/m3 | mass density ([2]; m1 = 0.003541): 776.16 ± 0.59 kg/m3 | mass density ([2]; m1 = 0.007081): 776.32 ± 0.59 kg/m3 | mass density ([2]; m1 = 0.007082): 776.32 ± 0.59 kg/m3 | mass density ([2]; m1 = 0.01062): 776.47 ± 0.59 kg/m3 | mass density ([2]; m1 = 0.01064): 776.46 ± 0.59 kg/m3 | mass density ([2]; m1 = 0.01416): 776.63 ± 0.59 kg/m3 | mass density ([2]; m1 = 0.01417): 776.61 ± 0.59 kg/m3 | mass density ([2]; m1 = 0.0176): 776.77 ± 0.59 kg/m3 and 776.78 ± 0.59 kg/m3 | mass density ([2]; m1 = 0.02124): 776.93 ± 0.59 kg/m3 | mass density ([2]; m1 = 0.02832): 777.24 ± 0.59 kg/m3

SMILES: CC[N+](CC)(CC)CC.[I-] [tetraethylammonium iodide] + CC(C)=O
mass density ([2]; m1 = 0.0001): 783.81 ± 0.5 kg/m3 | mass density ([2]; m1 = 0.0002): 783.81 ± 0.5 kg/m3 | mass density ([2]; m1 = 0.00536): 784.1 ± 0.5 kg/m3 | mass density ([2]; m1 = 0.005361): 784.11 ± 0.5 kg/m3 | mass density ([2]; m1 = 0.007105): 784.2 ± 0.49 kg/m3 | mass density ([2]; m1 = 0.007106): 784.21 ± 0.49 kg/m3 | mass density ([2]; m1 = 0.007107): 784.2 ± 0.49 kg/m3 | mass density ([2]; m1 = 0.008909): 784.3 ± 0.5 kg/m3 | mass density ([2]; m1 = 0.00891): 784.3 ± 0.5 kg/m3 | mass density ([2]; m1 = 0.01242): 784.5 ± 0.49 kg/m3 | mass density ([2]; m1 = 0.0142): 784.6 ± 0.49 kg/m3 | mass density ([2]; m1 = 0.0177): 784.81 ± 0.49 kg/m3 | mass density ([2]; m1 = 0.01771): 784.81 ± 0.49 kg/m3 | mass density ([2]; m1 = 0.02114): 784.99 ± 0.49 kg/m3 | mass density ([2]; m1 = 0.02115): 785 ± 0.49 kg/m3

SMILES: CC[N+](CC)(CC)CC.[I-] [tetraethylammonium iodide] + CO
mass density ([2]; m1 = 0.0001): 786.38 ± 0.49 kg/m3 | mass density ([2]; m1 = 0.0002): 786.38 ± 0.49 kg/m3 | mass density ([2]; m1 = 0.00354): 786.54 ± 0.49 kg/m3 | mass density ([2]; m1 = 0.003541): 786.54 ± 0.49 kg/m3 | mass density ([2]; m1 = 0.003542): 786.54 ± 0.49 kg/m3 | mass density ([2]; m1 = 0.007079): 786.69 ± 0.49 kg/m3 | mass density ([2]; m1 = 0.00708): 786.69 ± 0.49 kg/m3 | mass density ([2]; m1 = 0.007081): 786.69 ± 0.49 kg/m3 | mass density ([2]; m1 = 0.01062): 786.85 ± 0.49 kg/m3 | mass density ([2]; m1 = 0.01063): 786.85 ± 0.49 kg/m3 | mass density ([2]; m1 = 0.01416): 787 ± 0.49 kg/m3 | mass density ([2]; m1 = 0.01417): 787 ± 0.49 kg/m3 | mass density ([2]; m1 = 0.0176): 787.17 ± 0.49 kg/m3 and 787.18 ± 0.49 kg/m3 | mass density ([2]; m1 = 0.02124): 787.31 ± 0.49 kg/m3 | mass density ([2]; m1 = 0.02832): 787.63 ± 0.49 kg/m3 and 787.62 ± 0.49 kg/m3

SMILES: CC[N+](CC)(CC)CC.[I-] [tetraethylammonium iodide] + O=[N+]([O-])c1ccccc1
mass density ([2]; m1 = 0.0001): 1198.91 ± 0.72 kg/m3 | mass density ([2]; m1 = 0.0002): 1198.91 ± 0.72 kg/m3 | mass density ([2]; m1 = 0.003538): 1198.97 ± 0.72 kg/m3 | mass density ([2]; m1 = 0.007075): 1199.04 ± 0.72 kg/m3 | mass density ([2]; m1 = 0.0106): 1199.1 ± 0.72 kg/m3 | mass density ([2]; m1 = 0.01415): 1199.17 ± 0.72 kg/m3 | mass density ([2]; m1 = 0.01416): 1199.17 ± 0.72 kg/m3 | mass density ([2]; m1 = 0.0177): 1199.23 ± 0.72 kg/m3 | mass density ([2]; m1 = 0.02119): 1199.29 ± 0.72 kg/m3 | mass density ([2]; m1 = 0.02469): 1199.36 ± 0.72 kg/m3 and 1199.35 ± 0.72 kg/m3
